Data published in US20110144014A1, “CYTOKINE RECEPTOR MODULATORS AND USES THEREOF” (CENTRE HOSPITALIER UNIVERSITAIRE SAINTE-JUSTINE, priority 2005, published 2011).
Where a SMILES comes first, the peptide text is derived from it. [ ]: non-standard residue; d: D form.

Assays:
IL-1R/IL-1RacP [1] = target: T1, IL-1R/IL-1RacP (Sus scrofa, UniProt A0A5G2QSI4); test: Vasomotricity of piglet pial vessels (IL-1β induced vasodilation); conditions: vasodilation induced by IL-1
T1 construct: Slices of brain exposing the pial vessels; from tissue; host or cells: piglet brain slices, pial vessels
T1 sequence (A0A5G2QSI4 21-572): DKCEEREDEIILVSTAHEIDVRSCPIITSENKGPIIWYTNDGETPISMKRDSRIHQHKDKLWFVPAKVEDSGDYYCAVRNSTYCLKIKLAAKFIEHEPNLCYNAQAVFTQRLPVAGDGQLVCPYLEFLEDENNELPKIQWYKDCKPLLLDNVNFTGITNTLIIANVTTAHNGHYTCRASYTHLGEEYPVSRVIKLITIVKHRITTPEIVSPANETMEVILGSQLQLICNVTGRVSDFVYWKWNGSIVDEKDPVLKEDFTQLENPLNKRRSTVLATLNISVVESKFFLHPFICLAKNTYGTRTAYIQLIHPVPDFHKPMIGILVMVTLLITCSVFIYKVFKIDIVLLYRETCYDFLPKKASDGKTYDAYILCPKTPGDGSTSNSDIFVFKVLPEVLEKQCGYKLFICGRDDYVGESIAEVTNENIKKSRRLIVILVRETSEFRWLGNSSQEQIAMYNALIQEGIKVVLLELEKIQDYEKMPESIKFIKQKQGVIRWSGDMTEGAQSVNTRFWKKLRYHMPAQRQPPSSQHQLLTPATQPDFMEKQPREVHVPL
Method: In another experiment, vasomotricity variation of piglets pial vessels was studied to further evaluate the particular effect of cytokine receptor subfragments on the vasodilatator effect of IL-1β. Brains were dissected from Yorkshire piglets. Slices of brain exposing the pial vessels were pinned to a wax base of a 20 ml bath containing Krebs buffer (pH 7.4) equilibrated with 95% O2-5% CO2 and maintained at 37° C. Microvessels were visualized and recorded using a video camera mounted on a dissecting microscope. Vascular diameter was measured using a digital image analyzer and the images were recorded before and after topical application of constricting agent U46619 at 10^−7M. After stabilization of the vasomotricity, IL-1 ? was added until stabilization of vasodilatation. Peptides were then injected at different concentrations from 10^−10 to 10^−5M. Reversal of vasodilatation (i.e., vasoconstriction) was visualized and measured as described above. IL-1 ? induced vasodilatation in the microvasculature of the piglet brain was observed. Examples of the inhibitory activity of cytokine subfragment peptides are given below.

IL-1R/IL-1RacP [2] = target: T2, IL-1R/IL-1RacP (Rattus norvegicus, UniProt Q02955+Q63621); test: PGE2 levels in rat blood serum after IL-1β; format: in vivo; conditions: peptide injected directly in the stomach
T2 construct: 300 g Sprague-Dawley rats were anesthetized with isoflurane; from tissue; host or cells: whole animal (Sprague-Dawley rat)
T2 sequence (Q02955 20-576): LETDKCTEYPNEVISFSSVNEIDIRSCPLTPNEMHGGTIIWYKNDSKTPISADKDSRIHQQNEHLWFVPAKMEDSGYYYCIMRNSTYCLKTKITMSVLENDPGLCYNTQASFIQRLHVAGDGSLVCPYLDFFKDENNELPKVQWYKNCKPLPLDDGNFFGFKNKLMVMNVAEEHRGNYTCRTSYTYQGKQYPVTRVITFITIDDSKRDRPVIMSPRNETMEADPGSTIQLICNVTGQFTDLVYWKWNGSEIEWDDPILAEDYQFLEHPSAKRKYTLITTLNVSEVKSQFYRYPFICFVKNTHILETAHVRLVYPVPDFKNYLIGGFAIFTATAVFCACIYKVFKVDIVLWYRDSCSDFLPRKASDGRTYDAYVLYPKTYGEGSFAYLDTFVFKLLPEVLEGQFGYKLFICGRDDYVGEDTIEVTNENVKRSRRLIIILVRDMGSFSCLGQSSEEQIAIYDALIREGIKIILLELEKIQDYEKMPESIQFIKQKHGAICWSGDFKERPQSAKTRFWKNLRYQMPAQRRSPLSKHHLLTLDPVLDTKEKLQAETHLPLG
T2 sequence (Q63621 21-570): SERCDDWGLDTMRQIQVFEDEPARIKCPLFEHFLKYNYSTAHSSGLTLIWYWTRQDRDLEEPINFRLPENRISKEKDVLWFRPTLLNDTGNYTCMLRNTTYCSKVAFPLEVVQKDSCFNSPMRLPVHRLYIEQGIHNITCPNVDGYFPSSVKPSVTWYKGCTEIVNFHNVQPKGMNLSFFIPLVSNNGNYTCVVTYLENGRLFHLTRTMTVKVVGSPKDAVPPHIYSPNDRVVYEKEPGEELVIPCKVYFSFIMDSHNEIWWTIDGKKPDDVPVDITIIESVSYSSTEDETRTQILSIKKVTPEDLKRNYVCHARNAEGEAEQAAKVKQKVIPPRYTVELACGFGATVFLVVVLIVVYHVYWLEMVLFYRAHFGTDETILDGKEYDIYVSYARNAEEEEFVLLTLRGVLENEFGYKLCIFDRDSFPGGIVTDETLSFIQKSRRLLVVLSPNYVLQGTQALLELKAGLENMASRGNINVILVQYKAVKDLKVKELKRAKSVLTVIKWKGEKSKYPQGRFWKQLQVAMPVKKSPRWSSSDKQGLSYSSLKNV
Method: Another way of assessing the effect of cytokine receptor subfragments on IL-1R activity in vivo is by measuring PGE2 levels in rat blood serum. Rat blood samples were collected from in vivo experiments (e.g., protocol for IL-1 induced hypotension) and centrifuged at maximum speed for 15 minutes. The serum was then passed through a Waters purification column to isolate the lipidic part. Samples were evaporated and PGE2 quantities were determined with a radioimmuno assay (RIA) using a commercial kit (Cederlane).
The API-101 derivatives, API-101.10 (and others) were also tested to assess whether they could reverse the physiological actions of the natural ligand in vivo by injecting the derivative through the jugular or directly into the stomach (to verify the stability of the peptide through the digestive tract). Sprague-Dawley rats (300 g) were anesthetized with isoflurane (2.5-4%). The natural ligand (IL-1β) or vehicle (saline) was injected through the jugular vein (5 μg/kg). […] Arterial blood pressure and heart rate were continuously monitored (Gould) while temperature and blood gases (Radiometer) were measured for routine analysis as previously described (Li et al., Am. J. Physiol. 273:R1283-R1290, 1997; Hardy et al., Pediatr. Res. 46:375-382, 1999; Najarian et al., Circ. Res. 87:1149-1156, 2000). […]

CC(C)C[C@@H](NC(=O)[C@@H](CCC(=O)O)NC(=O)[C@H](NC(=O)[C@H](NC(=O)[C@@H](Cc1ccc(O)cc1)NC(=O)[C@H](N)CCCNC(=N)N)[C@H](C)O)C(C)C)C(=O)N[C@H](C)C(N)=O [API-101.10, RYTVELA] (H-[dR][dY][dT][dV][dE][dL][dA]-NH2; N-terminus and C-terminus assumed)
potency relative to API-101 (IL-1R/IL-1RacP [1]): 100 fold
prevention of PGE2 synthesis in vivo (IL-1R/IL-1RacP [2]): Higher inhibition
